Test results published in CN101069680A, “2-羟基-4-甲基苯磺酸制剂的制备及其应用” (BEIJING HUARUI DINGXIN TECHNOLOGY Co Ltd, priority 2007, dated 2007).

Experiments:
[1] = test system: Candida albicans 10 (白色念珠菌10); assay: In vitro antibacterial effect, tube method; design: key: -: 有明显抑菌作用; +: 没有抑菌作用; conditions: 1% solution mixed with MH broth with 5% glucose, 37°C, 24 h
[2] = test system: Escherichia coli 26 (大肠埃希氏菌26); assay: In vitro antibacterial effect, tube method; design: key to antibacterial effect: -: 有明显抑菌作用; +: 没有抑菌作用; conditions: 1% solution mixed with MH broth
[3] = test system: Staphylococcus aureus 9776 (金葡菌9776); assay: In vitro antibacterial effect, tube method; design: key to antibacterial effect: -: 有明显抑菌作用; +: 没有抑菌作用; conditions: 1% solution mixed with MH broth
[4] = test system: Candida albicans 2 (白色念珠菌2); assay: In vitro antibacterial effect, tube method; design: key: -: 有明显抑菌作用; +: 没有抑菌作用; conditions: 1% solution mixed with MH broth with 5% glucose, 37°C, 24 h
[5] = test system: cervical erosion model rats (宫颈糜烂模型大鼠); assay: Therapeutic effect on cervical erosion model rats: body weight, vagina and cervix weight index, white blood cell count; format: in vivo, rat; conditions: intravaginal, 12 days, positive control 0.02 g/kg, Example 2 gel 0.1048 g/kg
[6] = test system: cervical erosion model rats (宫颈糜烂模型大鼠); assay: Therapeutic effect on cervical erosion model rats: degree of cervical inflammation / pathology; format: in vivo, rat; conditions: intravaginal, 12 days, positive control 0.02 g/kg, Example 2 gel 0.1048 g/kg
[7] = test system: Enterococcus faecalis 755 (粪肠球菌755); assay: In vitro antibacterial effect, tube method; design: key to antibacterial effect: -: 有明显抑菌作用; +: 没有抑菌作用; conditions: 1% solution mixed with MH broth with 5% defibrinated sheep blood
[8] = test system: egg white (蛋清); assay: Astringent / coagulating effect on protein (precipitation of egg white); design: key to protein precipitation: -: 未见白色沉淀; +: 隐约可见白色沉淀; +: 有少量白色沉淀; ++: 有较多白色沉淀; +++: 有大量白色沉淀; conditions: for protein precipitation: 0.2 ml added to 5 ml of 5% egg white
[9] = test system: Staphylococcus epidermidis 26069 (表葡菌26069); assay: In vitro antibacterial effect, tube method; design: key to antibacterial effect: -: 有明显抑菌作用; +: 没有抑菌作用; conditions: 1% solution mixed with MH broth
[10] = test system: Candida albicans 6 (白色念珠菌6); assay: In vitro antibacterial effect, tube method; design: key: -: 有明显抑菌作用; +: 没有抑菌作用; conditions: 1% solution mixed with MH broth with 5% glucose, 37°C, 24 h
[11] = test system: beta-hemolytic streptococcus 96 (乙型链球菌96); assay: In vitro antibacterial effect, tube method; design: key to antibacterial effect: -: 有明显抑菌作用; +: 没有抑菌作用; conditions: 1% solution mixed with MH broth with 5% defibrinated sheep blood
[12] = test system: Candida albicans (白色念珠菌); assay: In vitro antibacterial effect, tube method (summary for the selected strains); conditions: 1% solution mixed with MH broth
[13] = test system: Candida albicans 12 (白色念珠菌12); assay: In vitro antibacterial effect, tube method; design: key: -: 有明显抑菌作用; +: 没有抑菌作用; conditions: 1% solution mixed with MH broth with 5% glucose, 37°C, 24 h
[14] = number of rats out of 8 per group

SMILES: Cc1ccc(S(=O)(=O)O)c(O)c1 [2-羟基-4-甲基苯磺酸]
- antibacterial effect [1]: -
- inhibitory effect (in words) [2]: 有明显的抑制作用
- antibacterial effect ([2]; 37°C, 24 h): -
- inhibitory effect (in words) [3]: 有明显的抑制作用
- antibacterial effect ([3]; 37°C, 24 h): -
- antibacterial effect [4]: -
- body weight after test ([5]; 1 h after last dose, *P<0.05 vs model): 249.6 ± 26.7 g
- total white blood cell count ([5]; blood, after last dose, *P<0.05, **p<0.01 vs model): 5.74±0.88 10^9g/L
- vagina and cervix weight index ([5]; *P<0.05 vs model): 0.268±0.102 g/100g body weight
- Ridit test u value ([6]; inflammation grade vs model group, * = significant difference): 2.8146
- inflammation degree grade: mild [6, 14]: 2
- inflammation degree grade: moderate [6, 14]: 1
- inflammation degree grade: normal [6, 14]: 4
- inflammation degree grade: severe [6, 14]: 1
- antibacterial effect (in words) [7]: 没有抑菌作用
- antibacterial effect ([7]; 37°C, 24 h): +
- threshold concentration for astringent coagulating effect on protein ([8]; concentration of the added solution): 0.39%
- astringent coagulating effect compared with tannic acid ([8]; same concentration): 弱于同浓度的鞣酸
- protein precipitation ([8]; test substance solution 0.098% (tube 10)): -
- protein precipitation ([8]; test substance solution 0.195% (tube 9)): -
- protein precipitation ([8]; test substance solution 0.78% (tube 7)): +
- protein precipitation ([8]; test substance solution 1.56% (tube 6)): +
- protein precipitation ([8]; test substance solution 3.125% (tube 5)): ++
- protein precipitation ([8]; test substance solution 6.25% (tube 4)): +++
- protein precipitation ([8]; test substance solution 12.5% (tube 3)): +++
- protein precipitation ([8]; test substance solution 25% (tube 2)): +++
- protein precipitation ([8]; test substance solution 50% (tube 1)): +++
- inhibitory effect (in words) [9]: 有明显的抑制作用
- antibacterial effect ([9]; 37°C, 24 h): -
- antibacterial effect [10]: -
- antibacterial effect (in words) [11]: 没有抑菌作用
- antibacterial effect ([11]; 37°C, 24 h): +
- inhibitory effect (in words) [12]: 有明显的抑制作用
- antibacterial effect [13]: -
